In paper PMC9607427, “Novel 7-Chloro-(4-thioalkylquinoline) Derivatives: Synthesis and Antiproliferative Activity through Inducing Apoptosis and DNA/RNA Damage” (Pharmaceuticals, 2022):

How the values were obtained:
Format in all cases: cell-based, human
[1] = test system: K562-TAX (chronic myeloid leukemia paclitaxel-resistant subline); assay: Cytotoxic MTS assay, K562-TAX; conditions: Homo sapiens, K562-Tax; MTS, 72 h of incubation; read-out: Cytotoxic activity IC50, K562-TAX
Method: (§1) In vitro cytotoxic activity of final compounds 5–82 was evaluated after 3 days of incubation against eight cell lines derived from human solid tumors including lung (A549 cells) and colon (HCT116 and HCT116p53−/−) carcinomas, as well as leukemia cell lines (CCRF-CEM, CEM-DNR, K562, and K562-TAX) and osteosarcoma (U2OS cells). For comparison, non-malignant BJ and MRC-5 fibroblasts, and BJLD and MCR-5LD fibroblasts doxorubicin-resistant cell lines were used. Concentrations inhibiting the cell growth by 50% (IC50) were determined using a quantitative metabolic staining with 3-(4,5-dimethylthiazol-2yl)-5-(3-carboxymethoxyphenyl)-2-(4-sulfophenyl)-2H-tetrazolium (MTS) and are summarized in (Table 3).
(§2) Cytotoxic activity was determined by MTS assay following 72 h of incubation. IC50 is the lowest concentration that kills 50% of cells. The standard deviation in cytotoxicity assays is typically up to 20% of the average value. […] The tested cell lines: A549 (lung adenocarcinoma), BJ (noncancerous human fibroblasts from foreskin), BJLD (human lung fibroblast doxorubicin-resistant), CCRF-CEM (childhood T cell acute lymphoblastic leukemia), a daunorubicin-resistant subline of CCRF-CEM cells (CEM-DNR bulk), HCT116 (colorectal carcinoma), HCT116p53−/− (HCT116 with deleted p53 gene), K562 (chronic myeloid leukemia), K562-TAX (chronic myeloid leukemia paclitaxel-resistant subline), MRC-5 (noncancerous human lung fibroblasts), MRC-5LD (noncancerous human lung fibroblasts doxorubicin-resistant), and U2OS (osteosarcoma).
(§3) All cell lines were purchased from the American Tissue Culture Collection (ATCC). The A549 cell line is lung adenocarcinoma. MRC-5 and BJ cell lines were used as a non-tumor control and represent human fibroblasts. (MRC-5 LD and BJLD) are doxorubicin-resistant human lung fibroblast cell lines. The CCRF-CEM line is derived from T lymphoblastic leukemia, evincing high chemosensitivity, whereas K562 represent cells from an […] patient sample with bcr-abl translocation. The daunorubicin-resistant subline of CCRF-CEM cells (CEM-DNR bulk) and paclitaxel-resistant subline K562-TAX were selected in our laboratory by the cultivation of maternal cell lines in increasing concentrations of daunorubicin or paclitaxel, respectively. The CEM-DNR bulk cells overexpress MRP-1 and P-glycoprotein protein, whereas K562-TAX cells overexpress P-glycoprotein only. Both proteins belong to the family of ABC transporters and are involved in the primary and/or acquired multidrug-resistance phenomenon. The U2OS cell line is derived from osteosarcoma, HCT116 is a colorectal tumor cell line and its p53 gene knock-down counterpart (HCT116p53−/−, Horizon Discovery Ltd., Cambridge, UK) is a model of human cancers with p53 mutation frequently associated with poor prognosis. The cells were maintained in nunc/corning 80 cm^2 plastic tissue culture flasks and cultured in a cell culture medium according to ATCC or Horizon recommendations (DMEM/RPMI 1640 with 5 g/L glucose, 2 mM glutamine, 100 U/mL penicillin, […], 10% fetal calf serum, and NaHCO3).
(§4) The activity of compounds was determined using a standard 3-(4,5-dimethylthiazol-2-yl)-5-(3-carboxymethoxyphenyl)-2-(4-sulfophenyl)-2H-tetrazolium (MTS) and it was performed at the Institute of Molecular and Translational Medicine by a robotic platform (High-ResBiosolutions). Cell suspensions were prepared and diluted according to the particular cell type and the expected target cell density (25,000–35,000 cells/mL based on cell growth characteristics). Cells were added by automatic pipettor (30 µL) into 384-well microtiter plates. All tested compounds were dissolved in 100% DMSO and four-fold dilutions of the intended test concentration were added in 0.15 µL aliquots at time zero to the microtiter plate wells by the echo acoustic non-contact liquid handler Echo550 (Labcyte). […]

[2] = test system: HCT116p53−/− (HCT116 with deleted p53 gene); assay: Cytotoxic MTS assay, HCT116p53−/−; conditions: Homo sapiens, HCT-116; MTS, 72 h of incubation; read-out: Cytotoxic activity IC50, HCT116-p53
Method: as §1, §2, §3, §4

[3] = Cytotoxic MTS assay, BJLD; conditions: human, BJLD cells (fibroblasts, doxorubicin-resistant); MTS, 72 h of incubation
Method: as §1, §2, §3, §4

[4] = Cytotoxic MTS assay, MRC-5; conditions: human, MRC-5 cells (noncancerous lung fibroblasts); MTS, 72 h of incubation
Method: as §1, §2, §3, §4

Cytotoxic MTS assay, BJ = conditions: human, BJ cells (noncancerous foreskin fibroblasts); MTS, 72 h of incubation
Method: as §1, §2, §3, §4

U2OS (osteosarcoma) = assay: Cytotoxic MTS assay, U2OS; conditions: Homo sapiens, U2OS; MTS, 72 h of incubation; read-out: Cytotoxic activity IC50, U2OS
Method: as §1, §2, §3, §4

[5] = Cytotoxic MTS assay, MRC-5LD; conditions: human; MTS, 72 h of incubation; read-out: Cytotoxic activity IC50, MRC5-LD
Method: as §1, §2, §3, §4

[6] = test system: A549 (lung adenocarcinoma); assay: Cytotoxic MTS assay, A549; conditions: Homo sapiens, A549; MTS, 72 h of incubation; read-out: Cytotoxic activity IC50, A549
Method: as §1, §2, §3, §4

[7] = test system: HCT116 (colorectal carcinoma); assay: Cytotoxic MTS assay, HCT116; conditions: Homo sapiens, HCT-116; MTS, 72 h of incubation; read-out: Cytotoxic activity IC50, HCT116
Method: as §1, §2, §3, §4

[8] = test system: CEM-DNR bulk (daunorubicin-resistant subline of CCRF-CEM cells); assay: Cytotoxic MTS assay, CEM-DNR; conditions: Homo sapiens, CEM-DNR; MTS, 72 h of incubation; read-out: Cytotoxic activity IC50, CEM-DNR
Method: as §1, §2, §3, §4

[9] = test system: K562 (chronic myeloid leukemia); assay: Cytotoxic MTS assay, K562; conditions: Homo sapiens, K562; MTS, 72 h of incubation; read-out: Cytotoxic activity IC50, K562
Method: as §1, §2, §3, §4

[10] = test system: CCRF-CEM (childhood T cell acute lymphoblastic leukemia); assay: Cytotoxic MTS assay, CCRF-CEM; conditions: Homo sapiens, CCRF-CEM; MTS, 72 h of incubation; read-out: Cytotoxic activity IC50, CCRF-CEM
Method: as §1, §2, §3, §4

Structure (SMILES) | IC50 [1] | IC50 [2] | IC50 at 72 h [3] | IC50 at 72 h [4] | IC50 at 72 h (Cytotoxic MTS assay, BJ) | IC50 (U2OS (osteosarcoma)) | IC50 at 72 h [5] | IC50 [6] | IC50 [7] | IC50 [8] | IC50 [9] | IC50 [10]
COc1ccc(C(=O)OCCC[S+]([O-])c2ccnc3cc(Cl)ccc23)cc1[N+](=O)[O-] (stereo not drawn) [Compound 59, 3-[(7-Chloroquinolin-4-yl)sulfinyl]propyl-4-methoxy-3-nitrobenzoate] | 6.12 µM | 6.81 µM | 10.2 µM | 23.7 µM | 21.6 µM | 5.15 µM | 10.3 µM | 7.76 µM | 8.86 µM | 8.81 µM | 8.77 µM | 1.2 µM
COc1cc(C(=O)OCCS(=O)(=O)c2cc[n+]([O-])c3cc(Cl)ccc23)cc(OC)c1OC [Compound 67, 2-[(N-Oxide 7-chloroquinolin-4-yl)sulfonyl]ethyl-3,4,5-trimethoxybenzoate] | 5.19 µM | 7.87 µM | 11.9 µM | 5.79 µM | 24.8 µM | 9.23 µM | 3.24 µM | 28.4 µM | 11.1 µM | 8.93 µM | 6.05 µM | 1.05 µM
COc1ccccc1C(=O)OCC[S+]([O-])c1ccnc2cc(Cl)ccc12 (stereo not drawn) [Compound 47, 2-[(7-Chloroquinolin-4-yl)sulfinyl]ethyl-2-methoxybenzoate] | 11.3 µM | 11.3 µM | 30.7 µM | 28.2 µM | 31.2 µM | 19.1 µM | 26.1 µM | 32.2 µM | 15.9 µM | 26.8 µM | 16.9 µM | 2.74 µM
[O-][S+](CCO)c1ccnc2cc(Cl)ccc12 (stereo not drawn) [Compound 41, 2-[(7-Chloroquinolin-4-yl)sulfinyl]ethanol] | 21.4 µM | 22.5 µM | 28.5 µM | 26.5 µM | 33.3 µM | 22.1 µM | 24.5 µM | 34.4 µM | 23.5 µM | 35.1 µM | 27.8 µM | 4.52 µM
COc1ccc(C(=O)OCC[S+]([O-])c2ccnc3cc(Cl)ccc23)cc1[N+](=O)[O-] (stereo not drawn) [Compound 48, 2-[(7-Chloroquinolin-4-yl)sulfinyl]ethyl-4-methoxy-3-nitrobenzoate] | 9.03 µM | 10 µM | 27.5 µM | 27.8 µM | 29.2 µM | 18.6 µM | 24 µM | 25 µM | 17 µM | 12.9 µM | 16.9 µM | 1.42 µM
Cc1ccc([N+](=O)[O-])c(C(=O)OCC[S+]([O-])c2ccnc3cc(Cl)ccc23)c1 (stereo not drawn) [Compound 49, 2-[(7-Chloroquinolin-4-yl)sulfinyl]ethyl-5-methyl-2-nitrobenzoate] | 6.4 µM | 7.56 µM | 23.5 µM | > 50 µM | 30.7 µM | 11.2 µM | > 50 µM | 15.7 µM | 7 µM | 7.75 µM | 12.3 µM | 1.34 µM
O=C(OCCC[S+]([O-])c1ccnc2cc(Cl)ccc12)c1ccc(C(F)(F)F)cc1 (stereo not drawn) [Compound 62, 3-[(7-Chloroquinolin-4-yl)sulfinyl]propyl-4-(trifluoromethyl)benzoate] | 9.15 µM | 9.61 µM | 30.1 µM | 29.4 µM | 29.9 µM | 14.3 µM | 25.9 µM | 26.1 µM | 15.7 µM | 10.5 µM | 17.6 µM | 1.17 µM
COc1cccc(C(=O)OCCC[S+]([O-])c2ccnc3cc(Cl)ccc23)c1OC (stereo not drawn) [Compound 54, 3-[(7-Chloroquinolin-4-yl)sulfinyl]propyl-2,3-dimethoxybenzoate] | 7.63 µM | 9.19 µM | 26.9 µM | 27.2 µM | 30.4 µM | 17.2 µM | 25.1 µM | 25.8 µM | 14 µM | 10.1 µM | 14.1 µM | 1.09 µM
Cc1cc(C)cc(C(=O)OCC[S+]([O-])c2ccnc3cc(Cl)ccc23)c1 (stereo not drawn) [Compound 50, 2-[(7-Chloroquinolin-4-yl)sulfinyl]ethyl-3,5-dimethylbenzoate] | 9.58 µM | 7.1 µM | 28.5 µM | 26.9 µM | 30.8 µM | 8.57 µM | 22.3 µM | 24 µM | 7.99 µM | 10 µM | 15.2 µM | 1.32 µM
Cc1ccc([N+](=O)[O-])c(C(=O)OCCC[S+]([O-])c2ccnc3cc(Cl)ccc23)c1 (stereo not drawn) [Compound 60, 3-[(7-Chloroquinolin-4-yl)sulfinyl]propyl-5-methyl-2-nitrobenzoate] | 4.26 µM | 6.06 µM | 18.1 µM | 29.4 µM | 29 µM | 5.81 µM | 19.8 µM | 9.55 µM | 7.77 µM | 7.27 µM | 8.86 µM | 1.13 µM
COc1cc(C(=O)OCCC[S+]([O-])c2ccnc3cc(Cl)ccc23)cc(OC)c1OC (stereo not drawn) [Compound 57, 3-[(7-Chloroquinolin-4-yl)sulfinyl]propyl-3,4,5-trimethoxybenzoate] | 14.6 µM | 14.8 µM | 31.9 µM | 29.9 µM | 33 µM | 21.3 µM | 25.8 µM | 30.5 µM | 19.3 µM | 16 µM | 17.4 µM | 1.51 µM
Cc1cc(C)cc(C(=O)OCCC[S+]([O-])c2ccnc3cc(Cl)ccc23)c1 (stereo not drawn) [Compound 61, 3-[(7-Chloroquinolin-4-yl)sulfinyl]propyl-3,5-dimethylbenzoate] | 6.76 µM | 6.89 µM | 27.6 µM | 26.1 µM | 30.3 µM | 8.1 µM | 22.1 µM | 10.9 µM | 8.26 µM | 8.35 µM | 12.7 µM | 1.05 µM
